In patent US20210227837A1, “NATAMYCIN FOR THE PRESERVATION OF A BAKED PRODUCT” (DSM IP ASSETS B.V., priority 2018, published 2021):

Legend:
[1] = Stability of natamycin solutions in propylene glycol and aqueous sodium acetate or potassium acetate (residual natamycin by HPLC); format: physicochemical; conditions: 4-7° C., natamycin 1%
Method: Natamycin concentrations were determined using […] as follows. • HPLC system: Waters iClass • Column: Waters Symmetry C18, 4.6×150 mm, 3.5 μm, Part No. WAT200632, Column no. 1483, Lot no. 0198313011 • Column temperature: 25° C. • Eluent A: 50 mM ammonium acetate buffer pH 5.8 (with acetic acid) • Eluent B: Acetonitrile • Wash: 60% acetonitrile/40% water (v/v) • Injection volume: 10 μl • Injector temperature: 10° C. in darkness • Flow: 1 mL/min
The reverse phase HPLC uses a UV detector to determine the residual concentration of natamycin at 303 nm. A set of standard dilutions containing subsequently increasing concentrations of natamycin in methanol was made and from these a calibration curve was obtained. The concentration of natamycin should not exceed a concentration of 88 mg/L. Generally, the dilutions contained 20 mg of sample and […] of methanol.
A 4.4 M solution of sodium acetate or a 5 M solution of potassium acetate in water (3 g) was mixed with propylene glycol (16 g) and natamycin (0.2 g) and heated until a final temperature of 105° C. to give a solution with a natamycin concentration of 1% (w/w). […] Samples of the mixtures were analyzed over time by HPLC for residual natamycin concentration. The shelf life test of the mixtures was done by storage at low temperatures (4-7° C.) and ambient temperatures (20-23° C.).

[2] = neutral pH values; cited from earlier work

Residual natamycin (%) ([1]; Blank (absence of sodium), propylene glycol, pH 6.2, day 0): 80% | Residual natamycin (%) ([1]; Blank (absence of sodium), propylene glycol, pH 6.2, day 12): 43% | Residual natamycin (%) ([1]; Blank (absence of sodium), propylene glycol, pH 6.2, day 23): 22% | Residual natamycin (%) ([1]; Blank (absence of sodium), propylene glycol, pH 6.2, day 30): 12% | Residual natamycin (%) ([1]; Blank (absence of sodium), propylene glycol, pH 6.2, day 31): 7% | Residual natamycin (%) ([1]; Blank (absence of sodium), propylene glycol, pH 6.2, day 50): 1% | Residual natamycin (%) ([1]; propylene glycol + aqueous sodium acetate, pH 8.2, day 0): 98% | Residual natamycin (%) ([1]; propylene glycol + aqueous sodium acetate, pH 8.2, day 31): 72% | Residual natamycin (%) ([1]; propylene glycol + aqueous sodium acetate, pH 8.2, day 51): 58%
SMILES: C[C@@H]1C/C=C/C=C/C=C/C=C/[C@H](O[C@@H]2O[C@H](C)[C@@H](O)[C@H](N)[C@@H]2O)C[C@@H]2O[C@](O)(C[C@@H](O)C[C@H]3O[C@@H]3/C=C/C(=O)O1)C[C@H](O)[C@H]2C(=O)O [natamycin]
solubility in water [2]: around 0.04 g/kg
